Tests used:
[1] = Stability of the compound in PBS at 500 uM measured for 3 months at pH 7.4 at -20 degC by HPLC analysis; assay type: physicochemical; details: buffer, pH 7.4, 2190 h
[2] = Stability of the compound in PBS at 500 uM measured within 144 hrs at pH 7.4 at 37 degC by HPLC analysis; assay type: physicochemical; details: buffer, pH 7.4, 144 h
[3] = Stability of the compound in rat plasma assessed as half life by LC-MS/MS analysis; assay type: ADME, cell-free
[4] = biological target: T1, Prostaglandin G/H synthase 1 (Ovis aries, UniProt P05979); assay: Inhibition of ovine COX1 assessed as reduction in PGF2alpha production using arachidonic acid as substrate preincubated with enzyme for 10 mins followed by substrate addition and measured after 2 mins by ELISA
T1 sequence (P05979 whole entry): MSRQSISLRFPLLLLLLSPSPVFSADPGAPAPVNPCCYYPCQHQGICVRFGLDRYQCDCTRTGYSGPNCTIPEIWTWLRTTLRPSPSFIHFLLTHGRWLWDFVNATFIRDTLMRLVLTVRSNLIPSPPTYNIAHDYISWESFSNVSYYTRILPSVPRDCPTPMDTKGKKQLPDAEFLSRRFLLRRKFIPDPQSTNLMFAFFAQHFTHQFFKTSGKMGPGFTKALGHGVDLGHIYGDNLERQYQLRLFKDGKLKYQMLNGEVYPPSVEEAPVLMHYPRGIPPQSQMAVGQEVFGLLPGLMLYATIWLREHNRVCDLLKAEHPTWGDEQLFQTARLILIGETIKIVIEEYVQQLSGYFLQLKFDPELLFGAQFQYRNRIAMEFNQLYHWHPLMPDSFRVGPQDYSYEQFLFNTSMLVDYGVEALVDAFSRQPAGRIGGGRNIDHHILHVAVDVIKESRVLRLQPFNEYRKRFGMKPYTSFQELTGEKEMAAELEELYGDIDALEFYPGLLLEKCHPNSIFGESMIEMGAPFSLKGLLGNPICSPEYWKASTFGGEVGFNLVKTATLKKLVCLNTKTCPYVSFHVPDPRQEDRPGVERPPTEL

[5] = biological target: T2, Prostaglandin G/H synthase 2 (Homo sapiens, UniProt P35354); assay: Inhibition of human recombinant COX2 assessed as reduction in PGF2alpha production using arachidonic acid as substrate preincubated with enzyme for 10 mins followed by substrate addition and measured after 2 mins by ELISA
T2 sequence (P35354 whole entry): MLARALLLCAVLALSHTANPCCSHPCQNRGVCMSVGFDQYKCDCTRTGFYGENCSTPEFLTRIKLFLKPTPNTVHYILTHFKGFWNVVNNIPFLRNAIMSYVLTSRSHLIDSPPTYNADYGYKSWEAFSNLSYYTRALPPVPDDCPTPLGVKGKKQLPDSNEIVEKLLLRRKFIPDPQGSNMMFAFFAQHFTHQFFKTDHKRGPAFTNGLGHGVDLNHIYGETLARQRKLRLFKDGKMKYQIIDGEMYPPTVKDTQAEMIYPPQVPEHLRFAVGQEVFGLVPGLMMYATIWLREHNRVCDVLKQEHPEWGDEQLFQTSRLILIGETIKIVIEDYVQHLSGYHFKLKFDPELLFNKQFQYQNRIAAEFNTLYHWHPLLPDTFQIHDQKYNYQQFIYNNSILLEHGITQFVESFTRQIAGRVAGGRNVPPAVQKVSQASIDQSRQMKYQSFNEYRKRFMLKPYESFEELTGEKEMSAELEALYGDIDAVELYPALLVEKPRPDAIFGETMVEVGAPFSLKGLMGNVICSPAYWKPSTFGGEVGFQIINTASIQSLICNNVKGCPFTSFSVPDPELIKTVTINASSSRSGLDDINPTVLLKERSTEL

[6] = system: Mus musculus; assay: Prodrug release in C57BL/6J mouse assessed as increase in H2S concentration in blood at 50 umol/kg, iv measured after 15 mins by gas chromatography; assay type: ADME, organism-based; details: in vivo, 0.25 h, dose 50 µmol/kg
[7] = system: Rattus norvegicus; assay: Prodrug release in Sprague-Dawley rat assessed as benzoic acid level in blood at 80 umol/kg, iv measured after 5 mins by LC-MS/MS analysis; assay type: ADME, organism-based; details: in vivo, dose 80 µmol/kg
[8] = biological target: T3, Liver carboxylesterase (Sus scrofa, UniProt Q29550); assay: Prodrug release in PBS assessed as porcine liver esterase-mediated hydrolysis at 500 uM measured at pH 7.4 in presence of PMSF by HPLC analysis; assay type: ADME; details: pig, isolated protein, pH 7.4, 500 µM
T3 sequence (Q29550 whole entry): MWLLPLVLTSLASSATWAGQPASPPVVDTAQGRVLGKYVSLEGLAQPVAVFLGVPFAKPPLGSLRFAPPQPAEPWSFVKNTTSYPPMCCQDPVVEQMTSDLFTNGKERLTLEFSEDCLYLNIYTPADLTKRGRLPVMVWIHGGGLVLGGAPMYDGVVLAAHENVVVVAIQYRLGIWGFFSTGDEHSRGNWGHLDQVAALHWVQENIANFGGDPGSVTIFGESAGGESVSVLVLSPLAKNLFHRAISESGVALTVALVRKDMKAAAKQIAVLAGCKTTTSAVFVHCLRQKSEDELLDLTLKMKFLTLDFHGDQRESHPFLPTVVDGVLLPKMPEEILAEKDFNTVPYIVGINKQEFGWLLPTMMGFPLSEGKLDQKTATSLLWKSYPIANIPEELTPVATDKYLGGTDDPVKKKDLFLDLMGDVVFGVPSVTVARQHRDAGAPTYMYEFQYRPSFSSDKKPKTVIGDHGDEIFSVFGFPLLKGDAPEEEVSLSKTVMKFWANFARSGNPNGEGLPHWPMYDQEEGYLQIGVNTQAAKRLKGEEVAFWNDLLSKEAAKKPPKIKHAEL

[9] = biological target: T3, Liver carboxylesterase; assay: Prodrug release in PBS assessed as porcine liver esterase-mediated hydrolysis by measuring H2S concentration at 500 uM measured at pH 7.4 after 5 hrs by methylene blue method; assay type: ADME; details: pig, isolated protein, pH 7.4, 5 h
[10] = biological target: T3, Liver carboxylesterase; assay: Prodrug release in PBS assessed as porcine liver esterase-mediated hydrolysis by measuring half-life at 500 uM measured at pH 7.4 by HPLC analysis; assay type: ADME; details: pig, isolated protein, pH 7.4, 500 µM
[11] = Stability in Sprague-Dawley rat assessed as parent compound level in blood at 80 umol/kg, iv measured after 5 mins by LC-MS/MS analysis; assay type: ADME, organism-based; details: whole blood, dose 80 µmol/kg, read-out: Stability
[12] = biological target: T3, Liver carboxylesterase; assay: Prodrug release in PBS assessed as porcine liver esterase-mediated hydrolysis by measuring peak H2S concentration at 500 uM measured at pH 7.4 after 80 mins by methylene blue method; assay type: ADME; details: pig, isolated protein, pH 7.4, 1.333 h
[13] = system: Rattus norvegicus; assay: Prodrug release in Sprague-Dawley rat assessed as benzoic acid level in blood at 80 umol/kg, iv measured after 1 min by LC-MS/MS analysis; assay type: ADME, organism-based; details: in vivo, dose 80 µmol/kg
[14] = Stability in Sprague-Dawley rat assessed as parent compound level in blood at 80 umol/kg, iv measured after 1 min by LC-MS/MS analysis; assay type: ADME, organism-based; details: whole blood, dose 80 µmol/kg, read-out: Stability

Stability [1] | Stability [2] | half-life [3] [h] | Compound | other results
Stable | Stable | – | Cc1ccc(CC(=O)[S-])cc1.[Na+] | –
Stable | Stable | – | COc1ccc(CCC(=O)[S-])cc1.[Na+] | –
Stable | Stable | – | O=C([S-])c1ccc2ccccc2c1.[Na+] | –
Stable | Stable | 6.73 | COc1ccc2cc([C@H](C)C(=O)[S-])ccc2c1.[Na+] | IC50 [4]: 1300 nM
– | – | – | COc1ccc2cc([C@H](C)C(=O)O)ccc2c1 [NAPROXEN] | IC50 [5]: 10600 nM
Stable | Stable | – | COc1ccc(C(=O)[S-])cc1.[Na+] | –
Stable | Stable | 2.17 | O=C([S-])c1ccccc1.[Na+] | Drug metabolism [6]: metabolite_detected; Drug metabolism [7]: 78.3 µM; Drug metabolism [8]: metabolite_notdetected; Drug metabolism [9]: metabolite_detected; t1/2 [10]: 2.51 h; concentration at 5 min [11]: 113 µM; Drug metabolism [12]: 70 µM; Drug metabolism [13]: 46.4 µM; concentration at 1 min [14]: 439 µM
Stable | Stable | 4.67 | CC(C(=O)[S-])c1ccc(-c2ccccc2)c(F)c1.[Na+] (centres undefined) | IC50 [4]: 221 nM

— ChEMBL document CHEMBL6120958, “A Highly Atom-Efficient Prodrug Approach to Generate Synergy between H2S and Nonsteroidal Anti-inflammatory Drugs and Improve Safety” (J Med Chem, 2024)
